The values below come from patent US20260001875A1, “AMINOPYRIMIDINYL DERIVATIVES FOR THE TREATMENT OF PARKINSON'S DISEASE” (UNIVERSITY OF DUNDEE, priority 2022, published 2026).

Assay [1] deals with T1, VHL (Homo sapiens, UniProt P40337). The assay can be described thus: Fluorescence polarization competitive binding assay. As to conditions: for Ki: displacement of FAM-labelled HIF-1α peptide from VCB. As to the method:
FP competitive binding assays were performed following the method described previously (Bond et al, J. Med. Chem. 2021, 64 (20), 15477-15502.). All the measurements were taken on a PHERstar (BMG LABTECH) plate reader installed with a FP filter that sets excitation and emission wavelengths at 485 nm and 520 nM separately. Each well of 384-well plate (Coring 3575) contains 10 nM VCB protein, 5 nM FAM-lableled HIF-1α peptide (FAM-DEALAHyp[…], “JC9”), and decreasing concentrations of PROTACs (14 concentrations with 2-fold serial dilution starting from 250 μM) in FP assay buffer (100 mM Bis-Tris propane, 100 mM NaCl, 1 mM TCEP, pH 7) with a final DMSO concentration of 5%. The control wells containing the VCB and JC9 with no compound are set as the maximum signals (zero displacement). And the control wells containing JC9 in the absence of protein are set as the minimum signals. Control values were used to obtain the percentage of displacement which was graphed against Log [Compound]. Average IC50 values were determined for each titration using nonlinear regression analysis with Prism (v.9.3.1).

The next assay deals with LRRK2 (Homo sapiens, UniProt Q5S007). In words: NanoBRET LRRK2 target engagement in HEK293 cells. As to conditions: for IC50: read-out: IC50 LRRK2 tracer displacement. The arrangement: host or cells: HEK293. The class given is binding. As to the method:
(§1) For VHL and LRRK2 target engagement experiments in live and permeabilized cells, the HEK293 cells were transfected with VHL-NanoLuc fusion vector (Promega, N275A) or LRRK2-NanoLuc fusion vector (Promega, NV3401) following Promega's protocol and seeded into white 384-well plate (Corning3570) at a density of 6000 cells/well. To measure NanoBRET in permeabilized cells, the cells were treated with 50 μg/mL digitonin (Sigma, D141), 125 nM VHL tracer/125 nM LRRK2 tracer, testing compounds at decreasing concentrations (12 concentrations with 2-fold serial dilution starting from 33 μM), and NanoBRET NanoGlo Substrate (Promega) at concentration recommended by the manufacturer's protocol. In the maximum signal control samples (DMSO control), DMSO was added instead of testing compounds. In the minimum signal control samples (no tracer control), DMSO and tracer dilution buffer were used to replace testing compounds and tracer separately. The filtered luminescence was measured within 10 min following addition of the substrate on a GloMax Discover microplate reader (Promega) or a PHERAstar (BMG LABTECH) plate reader equipped with a 450-nm bandpass filter (donor) and a 600-nm long pass filter (acceptor). To measure NanoBRET in live cells, the cells were treated with 250 nM VHL tracer/500 nM LRRK2 tracer, testing compounds at testing compounds at decreasing concentrations (12 concentrations with 2-fold serial dilution starting from 33 μM) and incubated at 37° C. in an incubator for 2 h. The plates were then cooled down and added with NanoBRET NanoGlo Substrate and Extracellular NanoLuc Inhibitor (Promega, N2160) before performing the same NanoBRET reading as the permeabilized mode on plate readers. NanoBRET ratio of each well was expressed in milliBRET according to the equation: mBRET=[(signal at […]/signal at 450 nM)−(signal at 610 nMno tracer control/signal at 450 nMno tracer control)]×1000. The fractional occupancy was calculated according to the equation: fractional occupancy=(mBRETtesting compound−mBRETno tracer control)/(mBRETDMSO control−mBRETno tracer control).
For orientation: Bioluminescence resonance energy transfer reports proximity on the nanometre scale.

Another assay relates to Rab10 pThr73. In words: Rab10 Thr73 dephosphorylation (immunoblot) in LRRK2^G2019S MEFs. As to conditions: for inhibition at 1 µM: read-out: pRab10 inhibited in LRRK2^G2019S MEFs; for EC50: dose response, read-out: G2019S MEFs-pRab10-dephosphorylation EC50. The class given is cell-based, mouse. Background: A western blot detects proteins with antibodies after separation by electrophoresis.

Assay [2] has as its target T1, VHL. In words: NanoBRET VHL target engagement in HEK293 cells. As to conditions: for IC50: read-out: IC50 VHL tracer displacement. The class given is binding. Also on record: host or cells: HEK293. As to the method:
as §1

[3] abbreviates: Mus musculus, 1 μM/4 h treatment.
[4] abbreviates: time course at 300 nM, LRRK2^G2019S MEFs.

SMILES strings stand for the structures. Entries after “also recorded” stand apart in the source; their conditions may differ. Like-named read-outs stand apart in the source and are kept apart here.

As a reminder, the Ki is a dissociation constant, usually derived from enzyme kinetics or from competition with a known ligand. A low value points to higher affinity. As for `CNc1nc(Nc2ccc(C(=O)N3CCN(C[C@H]4CC[C@H](CSC(C)(C)[C@H](NC(=O)C5(F)CC5)C(=O)N5C[C@@H](O)CC5C(=O)NCc5ccc(-c6scnc6C)cc5)CC4)CC3)cc2OC)ncc1Cl` (stereo partly drawn) [Cis-XL01126, (2S,4S)-1-((R)-3-((((1r,4R)-4-((4-(4-((5-chloro-4-(methylamino)pyrimidin-2-yl)amino)-3-methoxybenzoyl)piperazin-1-yl)methyl)cyclohexyl)methyl)thio)-2-(1-fluorocyclopropane-1-carboxamido)-3-methylbutanoyl)-4-hydroxy-N-(4-(4-methylthiazol-5-yl)benzyl)pyrrolidine-2-carboxamide], on VHL [1], the Ki was over 50 µM. In addition, the “binding to VHL (in words)” value at VHL [1] (fluorescence polarization) was “does not bind to VHL E3 ligase; also recorded: did not displace the fluorescent tracer”.

One may read the IC50 as the concentration that inhibits the measured activity by half. The term EC50 denotes the concentration that produces a half-maximal response. The molecule `CNc1nc(Nc2ccc(C(=O)N3CCN(CCOCCOCCSC(C)(C)[C@H](NC(=O)C4(F)CC4)C(=O)N4C[C@H](O)C[C@H]4C(=O)NCc4ccc(-c5scnc5C)cc4)CC3)cc2OC)ncc1Cl` [SD75, (2S,4R)-1-((R)-3-((2-(2-(2-(4-(4-((5-chloro-4-(methylamino)pyrimidin-2-yl)amino)-3-methoxybenzoyl)piperazin-1-yl)ethoxy)ethoxy)ethyl)thio)-2-(1-fluorocyclopropane-1-carboxamido)-3-methylbutanoyl)-4-hydroxy-N-(4-(4-methylthiazol-5-yl)benzyl)pyrrolidine-2-carboxamide] showed an inhibitory constant (Ki) on VHL [1] of 0.82 µM. In addition, the IC50 is 1.8 µM at LRRK2 (live HEK293 cells), 0.78 µM on LRRK2 (permeabilized HEK293 cells), 2.5 µM at VHL [2] (live HEK293 cells) and 1.9 µM on VHL [2] (permeabilized HEK293 cells). For the same molecule, the “IC50 ratio IC50, per/IC50, live (LRRK2 engagement)” value on LRRK2 (permeabilized vs live mode) is on record as 0.43. Besides, the inhibition at 1 µM in the assay with Rab10 pThr73 (setting [3]) is 30 to 95%. Moreover, the Dmax at 1 µM with Rab10 pThr73 (Mus musculus, time course at 1000 nM, LRRK2^G2019S MEFs) was determined as 74%. For the same molecule, the EC50 with Rab10 pThr73 (24 h treatment) amounted to 0.379 µM. Also, the “T1/2 of Rab10 dephosphorylation (G2019S)” value with Rab10 pThr73 (time course at 1000 nM, LRRK2^G2019S MEFs) worked out at 42 min. Moreover, the “IC50 ratio IC50, per/IC50, live (VHL engagement)” value at VHL [2] (permeabilized vs live mode) is listed as 0.76.

`CNc1nc(Nc2ccc(C(=O)N3CCN(C[C@H]4CC[C@H](CSC(C)(C)[C@H](NC(=O)C5(F)CC5)C(=O)N5C[C@H](O)CC5C(=O)NCc5ccc(-c6scnc6C)cc5)CC4)CC3)cc2OC)ncc1Cl` (stereo partly drawn) [XL01126, (2S,4R)-1-((R)-3-((((1R,4R)-4-((4-(4-((5-chloro-4-(methylamino)pyrimidin-2-yl)amino)-3-methoxybenzoyl)piperazin-1-yl)methyl)cyclohexyl)methyl)thio)-2-(1-fluorocyclopropane-1-carboxamido)-3-methylbutanoyl)-4-hydroxy-N-(4-(4-methylthiazol-5-yl)benzyl)pyrrolidine-2-carboxamide] showed a Ki on VHL [1] of 0.908 to 5.95 µM. Moreover, the results for the IC50 on LRRK2 (live HEK293 cells) and at VHL [2] (live HEK293 cells) were 1.4 µM and 10.1 µM, respectively. Besides, the “LRRK2 tracer displacement (in words)” value on LRRK2 (permeabilized HEK293 cells) is recorded as “poor displacement”. Further, the EC50 in the assay on Rab10 pThr73 (Mus musculus, 4 h treatment) was determined as 0.015 µM. Also, the “T1/2 of Rab10 dephosphorylation (G2019S)” value in the assay with Rab10 pThr73 (setting [4]) was determined as 18 min. The “VHL tracer displacement (in words)” value on VHL [2] (permeabilized HEK293 cells) is recorded as “poor displacement”.

Take `CNc1nc(Nc2ccc(C(=O)N3CCN(C[C@H]4CC[C@@H](CSC(C)(C)[C@H](NC(=O)C5(F)CC5)C(=O)N5C[C@H](O)CC5C(=O)NCc5ccc(-c6scnc6C)cc5)CC4)CC3)cc2OC)ncc1Cl` (stereo partly drawn) [XL01134]: affinity on VHL [1] was put at a Ki of 0.16 µM. Further, the IC50 at LRRK2 (live HEK293 cells) was 2.2 µM; on LRRK2 (permeabilized HEK293 cells) it was 2 µM; on VHL [2] (live HEK293 cells), 0.88 µM; at VHL [2] (permeabilized HEK293 cells), 0.78 µM. In addition, the inhibition at 1 µM was 20 to 100% in the assay with Rab10 pThr73 (setting [3]) and 10 to 100% in the assay with Rab10 pThr73 (Mus musculus, 1 μM/24 h treatment). Moreover, in the assay on Rab10 pThr73 (Mus musculus, 4 h treatment), the EC50 is 0.012 µM. This molecule also registered a Dmax at 0.3 µM in the assay with Rab10 pThr73 (Mus musculus, time course at 300 nM, LRRK2^G2019S MEFs) of 87%. Besides, the “T1/2 of Rab10 dephosphorylation (G2019S)” value with Rab10 pThr73 (setting [4]) came to 18 min.
